Experimental findings from patent publication US6596772B1, “Phosphate mimics and methods of treatment using phosphatase inhibitors” (Sugen, Inc., priority 1999, dated 2003) are described below.

Where two headings read alike, the source gives them in different places. Where only a bound is given, the exact number is not on record here.

What all share (experiment): PTP IC50 assay, pNPP or FDP as substrate
Format in all cases: biochemical

The target in one test is T1, PTP MEG2 (Homo sapiens, UniProt P43378).
T1 construct: made in house; host or cells: E. coli BL-21 (pGEX 6P-1)
T1 sequence (P43378 262-593 limits assumed): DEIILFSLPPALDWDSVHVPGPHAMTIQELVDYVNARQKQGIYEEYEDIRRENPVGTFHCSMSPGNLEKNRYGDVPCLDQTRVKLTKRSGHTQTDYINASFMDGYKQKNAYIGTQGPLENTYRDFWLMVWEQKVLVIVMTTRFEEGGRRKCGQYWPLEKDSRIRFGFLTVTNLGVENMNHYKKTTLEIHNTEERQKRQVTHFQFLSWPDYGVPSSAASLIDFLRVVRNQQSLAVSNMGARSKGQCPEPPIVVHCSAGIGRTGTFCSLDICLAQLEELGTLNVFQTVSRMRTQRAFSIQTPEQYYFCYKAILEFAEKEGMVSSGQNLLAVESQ
The procedure:
(§1) The following in vitro assay procedure is preferred to determine the level of activity and effect of the different compounds of the present invention on one or more of the PTPs. Similar assays can be designed along the same lines for any PTP using techniques well known in the art.
(§2) The catalytic assays described herein are performed in a 96-well format. The general procedure begins with the determination of PTP optimal pH using a three-component buffer system that minimizes ionic strength variations across a wide range of buffer pH. Next, the Michaelis-Menten constant, or Km, is determined for each specific substrate-PTP system. This Km value is subsequently used as the substrate reaction concentration for compound screening. Finally, the test PTP is exposed to varying concentrations of compound for fifteen minutes and allowed to react with substrate for ten minutes. The results are plotted as percent inhibition versus compound concentration and the IC50 interpolated from the plot.
(§3) All assays were performed using pNPP or FDP as substrate. The optimum pH was determined for each PTP used.
(§4) PTPase activity was assayed at 25° C. in a 100-μl reaction mixture containing an appropriate concentration of pNPP or FDP as substrate. The reaction was initiated by addition of the PTP and quenched after 10 min by addition of 50 μl of IN NaOH. The non-enzymatic hydrolysis of the substrate was corrected by measuring the control without the addition of the enzyme. The amount of p-nitrophenol produced was determined from the absorbance at 410 nm. To determine the kinetic parameter, Km, the initial velocities were measured at various substrate concentrations and the data were fitted to the Michaelis equation where velocity=(Vmax*[S])/(Km+[S]), and [S]=substrate reaction concentration.
(§5) The effect of the compounds on PTP was evaluated at 25° C. using pNPP or FDP as substrate. PTP was pre-incubated for fifteen minutes with various concentrations of compound. Substrate was then added at a fixed concentration (usually equal to the Km previously calculated). After 10 minutes, NaOH was added to stop the reaction. The hydrolysis of pNPP was followed at 410 nm on the Biotek Powerwave 200 microplate scanning spectrophotometer. The percent inhibition was calculated as follows: Percent Inhibition=[(control signal−compound signal)/control signal] ×100%. The IC50 was then determined by interpolation of a percent inhibition versus compound concentration plot.
(§6) Plasmids designed for bacterial GST-PTP fusion protein expression were derived by insertion of PCR-generated human PTP fragments into pGEX vectors (Pharmacia Biotech). Several of these constructs were then used to subclone phosphatases into pFastBac-1for expression in Sf-9 insect cells. Oligonucleotides used for the initial amplification of PTP genes are shown below. The cDNAs were prepared using the Gilbo BRL superscript preamplification system on RNAs purchased from Clontech.
The PTP MEG2 cDNA was amplified from human placenta single strand cDNA (Clontech RNA) using the following oligonucleotides: 5′oligo: 5′-[…]-3′ (SEQ ID NO: 8) 3′oligo: 5′-[…]-3′ (SEQ ID NO: 9) and subsequently ligated into pGex 6P-1 Eco RI/Xho I sites.

The next test concerns the target T2, PTP SIGMA (Homo sapiens, UniProt Q13332).
T2 construct: made in house; host or cells: E. coli BL-21 (pGEX 6P-1)
T2 sequence (Q13332 1320-1660 limits assumed): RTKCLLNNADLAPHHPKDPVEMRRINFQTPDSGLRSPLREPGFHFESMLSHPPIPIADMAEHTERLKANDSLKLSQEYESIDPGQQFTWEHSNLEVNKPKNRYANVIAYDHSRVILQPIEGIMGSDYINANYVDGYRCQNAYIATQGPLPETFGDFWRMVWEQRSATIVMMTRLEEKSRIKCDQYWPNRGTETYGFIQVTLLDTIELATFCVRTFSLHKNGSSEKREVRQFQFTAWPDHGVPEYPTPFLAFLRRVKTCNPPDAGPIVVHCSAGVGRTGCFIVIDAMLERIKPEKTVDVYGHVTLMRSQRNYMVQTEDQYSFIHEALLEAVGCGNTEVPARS
The procedure: as §1, §2, §3, §4, §5, §6
The PTP Sigma cDNA was amplified from human brain single strand cDNA (Clontech RNA) using the following oligonucleotides: 5′oligo: 5′-[…]-3′ (SEQ ID NO: 12) 3′oligo: 5′-[…]-3′ (SEQ ID NO: 13) and subsequently ligated into pGex 6P-1 Eco RI/Xho I sites.

For another test, the target named is T3, PTP EPSILON (Homo sapiens, UniProt P23469).
T3 construct: made in house; host or cells: Sf-9 insect cells (pFastBac-G2T); a pGEX 6P-1 construct also existed
T3 sequence (P23469 80-393 limits assumed): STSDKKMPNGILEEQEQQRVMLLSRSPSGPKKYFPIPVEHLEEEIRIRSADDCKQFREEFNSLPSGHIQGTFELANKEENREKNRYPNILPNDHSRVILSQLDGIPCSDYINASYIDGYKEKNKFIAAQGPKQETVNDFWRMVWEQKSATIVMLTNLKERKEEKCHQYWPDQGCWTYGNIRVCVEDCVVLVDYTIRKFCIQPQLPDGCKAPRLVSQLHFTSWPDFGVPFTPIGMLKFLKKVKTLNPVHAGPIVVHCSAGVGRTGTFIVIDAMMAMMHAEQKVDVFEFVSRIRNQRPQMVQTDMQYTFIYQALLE
As for the experimental part:
as §1, §2, §3, §4, §5, §6
The PTPepsilon cDNA was amplified from human placenta single-strand cDNA (Clontech RNA) using the following oligonucleotides: 5′oligo: 5′-[…]-3′ (SEQ ID NO: 6) 3′oligo: 5′-[…]-3′ (SEQ ID NO: 7) After cloning this PCR product into the Bam HI/Xho I sites of pGEX 6P-1, this phosphatase was subcloned using the same restriction sites in pFastBac-G2T.

Another test addresses T4, PTP BETA (Homo sapiens, UniProt P23467).
T4 construct: The catalytic domain was amplified using the following oligonucleotides; made in house; host or cells: E. coli BL-21 (pGEX 6P-1)
As for the experimental part: as §1, §2, §3, §4, §5, §6
The PTP Beta cDNA used has been described earlier (Levy et al., 1993, J. Biol. Chem, 268:10573-10581). The catalytic domain was amplified using the following oligonucleotides: 5′oligo: 5′-[…]-3′ (SEQ ID NO: 16) 3′oligo: 5′-[…]-3′ (SEQ ID NO: 17) and subsequently cloned into the Eco RI/Xho I sites of pGEX 6P-1.

Setting [1] is: pNPP or FDP as substrate, 25° C., read-out: PTP IC50 MEG2.
The mark [2] stands for this setting: pNPP or FDP as substrate, 25° C., read-out: PTP IC50 Sigma.
[3] abbreviates: pNPP or FDP as substrate, 25° C., read-out: PTP IC50 Epilson.
Setting [4] is: pNPP or FDP as substrate, 25° C., read-out: PTP IC50 Beta.

T4 sequence (P23467 1653-1997): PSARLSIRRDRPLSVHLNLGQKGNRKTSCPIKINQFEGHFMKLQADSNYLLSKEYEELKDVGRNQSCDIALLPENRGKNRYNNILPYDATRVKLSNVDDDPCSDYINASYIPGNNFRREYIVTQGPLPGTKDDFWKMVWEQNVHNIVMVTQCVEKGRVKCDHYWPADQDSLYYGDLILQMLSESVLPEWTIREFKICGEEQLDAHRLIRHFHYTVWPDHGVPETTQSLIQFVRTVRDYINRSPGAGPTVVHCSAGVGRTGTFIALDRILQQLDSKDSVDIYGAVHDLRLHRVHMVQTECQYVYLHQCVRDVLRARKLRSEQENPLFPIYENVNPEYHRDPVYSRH

On to “1-(4-Aminophenoxy)-4-trifluoromethylsulfonamidophenoxy benzene [Example 72]”, for which the IC50 (in general, the point on the concentration scale where inhibition reaches its midpoint) on PTP MEG2 (setting [1]) was greater than 100 µM; at PTP SIGMA (setting [2]) it was 41.1 µM; at PTP EPSILON (setting [3]), 48.3 µM; on PTP BETA (setting [4]) it was 22.7 µM.

Regarding `O=[N+]([O-])c1cc(S(=O)(=O)C(F)(F)F)ccc1OC1CCC(Oc2ccc(S(=O)(=O)C(F)(F)F)cc2[N+](=O)[O-])C1` (mixture of isomers) [Example 12, 1,3-Bis-(2-nitro-4-trifluoromethanesulfonyl-phenoxy)-cyclopentane], the IC50 at PTP MEG2 (setting [1]) was greater than 100 µM; on PTP SIGMA (setting [2]) it was 91.7 µM; at PTP EPSILON (setting [3]), greater than 100 µM; at PTP BETA (setting [4]), 17.9 µM.

For `CS(=O)(=O)Nc1ccc(Oc2ccc(Oc3ccc(NS(C)(=O)=O)cc3)cc2)cc1` [CH3SO2NH—], the IC50 is greater than 100 µM on PTP MEG2 (comparison of R groups, read-out: IC50 MEG2); 22 µM at PTP SIGMA (comparison of R groups, read-out: IC50 Sigma); 51.4 µM at PTP EPSILON (comparison of R groups, read-out: IC50 Epsilon); 62.6 µM on PTP BETA (comparison of R groups, read-out: IC50 Beta).

Consider `O=S(=O)(c1ccc(COCc2ccc(S(=O)(=O)C(F)(F)F)cc2)cc1)C(F)(F)F` [Example 1, Bis (4-trifluoromethylsulfonylbenzyl) ether], for which the IC50 at PTP MEG2 (setting [1]) is 55 µM; at PTP SIGMA (setting [2]), greater than 100 µM; on PTP EPSILON (setting [3]) it was 24.3 µM; on PTP BETA (setting [4]), 5.9 µM.

For the compound `O=S(=O)(c1ccc(COc2ccc(S(=O)(=O)C(F)(F)F)cc2)cc1)C(F)(F)F` [Example 2, 4-Trifluoromethylsulfonylbenzyl 4-trifluoromethylsulfonylphenyl ether], the IC50 at PTP MEG2 (setting [1]) turned out to be 62.1 µM; on PTP SIGMA (setting [2]), 30.5 µM; at PTP EPSILON (setting [3]), 8.1 µM; at PTP BETA (setting [4]), 3.5 µM.

For `O=C(c1ccccc1)N(Cc1ccc(S(=O)(=O)C(F)(F)F)cc1)Cc1ccc(S(=O)(=O)C(F)(F)F)cc1` [Example 3, N,N-Bis(4-trifluoromethylsulfonylbenzyl)benzamide], the IC50 at PTP MEG2 (setting [1]) was found to be 85.9 µM; on PTP SIGMA (setting [2]) it was 42.6 µM; on PTP EPSILON (setting [3]), 28.1 µM; on PTP BETA (setting [4]) it was 17.2 µM.

`O=S(=O)(c1ccc(CCc2ccc(S(=O)(=O)C(F)(F)F)cc2)cc1)C(F)(F)F` [Example 4, 1,2-Bis(4-trifluoromethylsulfonylphenyl)ethane]: the IC50 is 45.9 µM on PTP MEG2 (setting [1]), 81.1 µM at PTP SIGMA (setting [2]), 16.6 µM on PTP EPSILON (setting [3]) and 6.8 µM at PTP BETA (setting [4]).

For `O=C(NCc1ccc(S(=O)(=O)C(F)(F)F)cc1)c1ccc(S(=O)(=O)C(F)(F)F)cc1` [Example 5, N-(4-Trifluoromethylsulfonylbenzyl)-4-trifluoromethylsulfonylbenzamide], the IC50 on PTP MEG2 (setting [1]) is greater than 100 µM; at PTP SIGMA (setting [2]) it was greater than 100 µM; at PTP EPSILON (setting [3]) it was 38.6 µM; on PTP BETA (setting [4]), 44.8 µM.

With `O=C(NCc1ccc(S(=O)(=O)C(F)(F)F)cc1)c1ccccc1` [Example 6, N-(4-Trifluoromethylsulfonylbenzyl)benzamide], the IC50 on PTP MEG2 (setting [1]), at PTP SIGMA (setting [2]), at PTP EPSILON (setting [3]) and on PTP BETA (setting [4]) was greater than 100 µM in each case.

`O=[N+]([O-])c1cc(S(=O)(=O)C(F)(F)F)ccc1SSc1ccc(S(=O)(=O)C(F)(F)F)cc1[N+](=O)[O-]` [Example 8, Bis-(2-nitro-4-trifluoromethylsulfonylphenyl) disulfide]: the IC50 was greater than 100 µM at PTP MEG2 (setting [1]), 27.7 µM on PTP SIGMA (setting [2]), 53.7 µM on PTP EPSILON (setting [3]) and 26.5 µM at PTP BETA (setting [4]).

In the case of `COC(=O)c1cc(Oc2ccc(S(=O)(=O)C(F)(F)F)cc2)cc(Oc2ccc(S(=O)(=O)C(F)(F)F)cc2)c1` [Example 9, 3,5-Bis-(4-trifluoromethanesulfonyl-phenoxy)-benzoic acid methyl ester], the IC50 on PTP MEG2 (setting [1]) is greater than 100 µM; at PTP SIGMA (setting [2]), 49.9 µM; at PTP EPSILON (setting [3]), greater than 100 µM; at PTP BETA (setting [4]) it was 45.6 µM.

Turning to `COC(=O)Cc1cc(Oc2ccc(S(=O)(=O)C(F)(F)F)cc2[N+](=O)[O-])cc(Oc2ccc(S(=O)(=O)C(F)(F)F)cc2[N+](=O)[O-])c1` [Example 10, [3,5-Bis-(2-nitro-4-trifluoromethanesulfonyl-phenoxy)-phenyl]-acetic acid methyl ester], the IC50 on PTP MEG2 (setting [1]) was greater than 100 µM; on PTP SIGMA (setting [2]), 33.8 µM; on PTP EPSILON (setting [3]) it was 60.8 µM; on PTP BETA (setting [4]), 20.5 µM.

Take `COC(=O)c1cc(Oc2ccc(S(=O)(=O)C(F)(F)F)cc2[N+](=O)[O-])cc(Oc2ccc(S(=O)(=O)C(F)(F)F)cc2[N+](=O)[O-])c1` [Example 11, 3,5-Bis-(2-nitro-4-trifluoromethanesulfonyl-phenoxy)-benzoic acid methyl ester]: the 50% inhibitory concentration (IC50) on PTP MEG2 (setting [1]) is greater than 100 µM; on PTP SIGMA (setting [2]), 24.1 µM; at PTP EPSILON (setting [3]), 38.7 µM; at PTP BETA (setting [4]) it was 11.2 µM.

As to `COC(=O)c1c(Oc2ccc(S(=O)(=O)C(F)(F)F)cc2[N+](=O)[O-])cc(C)cc1Oc1ccc(S(=O)(=O)C(F)(F)F)cc1[N+](=O)[O-]` [Example 13, 4-Methyl-2,6-bis-(2-nitro-4-trifluoromethanesulfonyl-phenoxy)-benzoic acid methyl ester], the IC50 at PTP MEG2 (setting [1]) is greater than 100 µM; at PTP SIGMA (setting [2]) it was 84.5 µM; on PTP EPSILON (setting [3]) it was 80.4 µM; on PTP BETA (setting [4]), 15.1 µM.

For the compound `COC(=O)c1ccc(OCCOc2ccc(S(=O)(=O)C(F)(F)F)cc2[N+](=O)[O-])cc1` [Example 14, 4-[2-(2-nitro-4-trifluoromethanesulfonyl-phenoxy)-ethoxy]-benzoic acid methyl ester], the IC50 is greater than 100 µM at PTP MEG2 (setting [1]), 6.75 µM at PTP SIGMA (setting [2]), greater than 100 µM at PTP EPSILON (setting [3]) and 13.4 µM at PTP BETA (setting [4]).
